{"source": "ChEMBL document CHEMBL3272065", "about": "(J Med Chem, 1977)", "key": {"[1]": {"experiment": "Hydrolysis of the compound at pH 7.4 at 37 degC assessed as first-order rate coefficient at 3.4 x 10' -3 M", "assay_type": "physicochemical", "conditions": "buffer, pH 7.4, 3400 µM"}, "[2]": {"experiment": "Half life of the compound at pH 7.4 at 37 degC at 3.4 x 10' -3 M", "assay_type": "physicochemical"}}, "data": [{"smiles": "O=[N+]([O-])c1cc([N+](=O)[O-])c(NCCCSCCCl)c(S(=O)(=O)O)c1", "values": [{"measurement": "K", "setting": "[1]", "value": 2, "unit": "×10⁻³ /s"}, {"measurement": "half-life at 3400 µM", "setting": "[2]", "value": 5.83, "unit": "min"}]}]}
